Legend:
Mus musculus [1] = assay: Toxicity in Swiss mouse assessed as occurrence of mydriasis at 30 mg/kg, ip up to 24 hrs; assay type: organism-based; set-up: dose 30 mg/kg, route intraperitoneal; settings: in vivo
[2] = biological target: T1, Muscarinic acetylcholine receptor M1 (Homo sapiens, UniProt P11229); assay: Displacement of [3H]NMS from human muscarinic M1 receptor expressed in CHOK1 cells by microplate scintillation counting; assay type: cell-based, CHO-K1
T1 sequence (P11229 whole entry): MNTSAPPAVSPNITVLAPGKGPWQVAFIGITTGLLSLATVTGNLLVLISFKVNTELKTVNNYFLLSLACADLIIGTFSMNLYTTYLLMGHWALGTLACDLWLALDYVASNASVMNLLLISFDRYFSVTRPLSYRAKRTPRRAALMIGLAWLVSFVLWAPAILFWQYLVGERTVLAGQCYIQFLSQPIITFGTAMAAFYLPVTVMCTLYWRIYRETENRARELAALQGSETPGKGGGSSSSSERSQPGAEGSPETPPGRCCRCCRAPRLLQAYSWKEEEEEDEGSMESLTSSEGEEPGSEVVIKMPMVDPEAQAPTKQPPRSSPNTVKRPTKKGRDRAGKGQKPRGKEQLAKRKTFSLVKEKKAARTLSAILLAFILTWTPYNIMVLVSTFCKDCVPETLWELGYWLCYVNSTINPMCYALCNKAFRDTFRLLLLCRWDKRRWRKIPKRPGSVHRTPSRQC

[3] = biological target: T2, Muscarinic acetylcholine receptor M2 (Homo sapiens, UniProt P08172); assay: Displacement of [3H]NMS from human muscarinic M2 receptor expressed in CHOK1 cells by microplate scintillation counting; assay type: cell-based, CHO-K1
T2 sequence (P08172 whole entry): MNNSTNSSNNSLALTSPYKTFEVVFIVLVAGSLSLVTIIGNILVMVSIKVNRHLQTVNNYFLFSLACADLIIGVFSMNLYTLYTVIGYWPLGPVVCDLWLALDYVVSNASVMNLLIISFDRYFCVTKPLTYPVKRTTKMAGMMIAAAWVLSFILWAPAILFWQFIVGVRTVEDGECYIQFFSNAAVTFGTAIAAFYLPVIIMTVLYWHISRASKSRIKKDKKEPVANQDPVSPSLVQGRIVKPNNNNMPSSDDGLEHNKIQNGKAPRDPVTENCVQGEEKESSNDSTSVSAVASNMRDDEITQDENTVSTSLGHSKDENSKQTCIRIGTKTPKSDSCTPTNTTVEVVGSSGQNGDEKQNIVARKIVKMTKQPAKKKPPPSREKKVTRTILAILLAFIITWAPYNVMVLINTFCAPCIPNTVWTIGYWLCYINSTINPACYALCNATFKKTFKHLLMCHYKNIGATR

[4] = biological target: T3, Muscarinic acetylcholine receptor M3 (Homo sapiens, UniProt P20309); assay: Displacement of [3H]NMS from human muscarinic M3 receptor expressed in CHOK1 cells by microplate scintillation counting; assay type: cell-based, CHO-K1
Cavia porcellus [5] = assay: Inhibition of acetylcholine-induced bronchoconstriction in Dunkin-Hartley guinea pig assessed as time taken to recover 50% of maximum inhibitory effect at 3 mg/mL administered as nebulized solution; assay type: functional
Mus musculus [6] = assay: Toxicity in Swiss mouse assessed as neurobiological state and occurrence of xerostomia at 30 mg/kg, ip up to 24 hrs; assay type: organism-based; set-up: dose 30 mg/kg, route intraperitoneal; settings: in vivo
Cavia porcellus [7] = assay: Inhibition of acetylcholine-induced bronchoconstriction in Dunkin-Hartley guinea pig assessed as time taken to recover 50% of maximum inhibitory effect at 1 mg/mL administered as nebulized solution; assay type: functional
[8] = Chemical stability assessed as half life at pH 7.4 by UV-HPLC analysis; assay type: physicochemical; settings: buffer
[9] = Metabolic stability in human plasma assessed as elimination half life at pH 7.4; assay type: ADME, cell-free; settings: read-out: beta t1/2
[10] = biological target: T2, Muscarinic acetylcholine receptor M2; assay: Binding affinity to muscarinic M2 receptor
[11] = biological target: T1, Muscarinic acetylcholine receptor M1; assay: Binding affinity to muscarinic M1 receptor
[12] = biological target: T3, Muscarinic acetylcholine receptor M3
Description: Binding affinity to muscarinic M3 receptor

Cavia porcellus [13] = assay: Inhibition of acetylcholine-induced bronchoconstriction in Dunkin-Hartley guinea pig administered as nebulized solution; assay type: functional, organism-based
Cavia porcellus [14] = assay: Inhibition of acetylcholine-induced bronchoconstriction in Dunkin-Hartley guinea pig assessed as time taken to recover 50% of maximum inhibitory effect at 1 mg/mL administered as nebulized solution

T3 sequence (P20309 whole entry): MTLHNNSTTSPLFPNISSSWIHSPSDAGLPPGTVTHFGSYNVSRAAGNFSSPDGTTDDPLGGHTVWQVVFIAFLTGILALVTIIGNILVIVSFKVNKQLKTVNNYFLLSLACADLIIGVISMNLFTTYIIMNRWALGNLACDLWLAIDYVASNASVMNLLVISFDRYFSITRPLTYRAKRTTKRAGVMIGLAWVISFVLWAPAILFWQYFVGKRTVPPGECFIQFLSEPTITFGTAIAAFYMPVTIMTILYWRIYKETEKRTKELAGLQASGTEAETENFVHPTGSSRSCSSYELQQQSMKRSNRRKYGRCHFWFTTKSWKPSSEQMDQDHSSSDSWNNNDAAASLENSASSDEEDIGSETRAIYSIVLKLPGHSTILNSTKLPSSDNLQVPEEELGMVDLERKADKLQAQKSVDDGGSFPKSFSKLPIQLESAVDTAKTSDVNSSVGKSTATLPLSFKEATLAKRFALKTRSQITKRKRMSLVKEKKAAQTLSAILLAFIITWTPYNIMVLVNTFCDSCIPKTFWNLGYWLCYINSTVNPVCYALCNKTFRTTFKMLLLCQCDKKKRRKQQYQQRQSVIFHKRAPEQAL

Row | Structure (SMILES) | IC50 [2] [nM] | IC50 [3] [nM] | IC50 [4] [nM] | Activity (Mus musculus [6]) | Time (Cavia porcellus [7]) [h] | also measured
1 | CC(C)[N+]1(C)C2CCC1CC(OC(=O)C(CO)c1ccccc1)C2.O.[Br-] (stereo unspecified) |  |  |  |  |  | Activity (Mus musculus [1]): Toxic
2 | O=C(O[C@H]1C[N+]2(CCCOc3ccccc3)CCC1CC2)[C@@](O)(c1cccs1)C1CCCC1.[Br-] | 0.81 | 1.01 | 1.62 | Non-toxic |  | Time (Cavia porcellus [5]): >6 h
3 | O=C(O[C@H]1C[N+]2(CCCOc3ccccc3)CCC1CC2)C(c1cccs1)c1cccs1.[Br-] | 0.34 | 0.35 | 0.37 | Non-toxic |  | 
4 | O=C(O[C@H]1C[N+]2(CCCOc3ccccc3)CCC1CC2)C(O)(c1ccsc1)c1ccsc1.[Br-] | 0.23 | 0.18 | 0.24 | Non-toxic |  | 
5 | O=C(O[C@H]1C[N+]2(CCCOc3ccccc3)CCC1CC2)C(O)(c1ccccc1)c1ccccc1.[Br-] | 0.31 |  |  | Non-toxic |  | Time (Cavia porcellus [5]): >6 h
6 | O=C(O[C@H]1C[N+]2(CCCCc3ccccc3)CCC1CC2)C(O)(c1cccs1)c1cccs1.[Br-] | 0.29 | 0.38 | 0.45 | Non-toxic | 6 | Time (Cavia porcellus [5]): 6 h
7 | CC1(C(=O)O[C@H]2C[N+]3(CCCOc4ccccc4)CCC2CC3)c2ccccc2Oc2ccccc21.[Br-] | 0.28 | 0.27 |  | Non-toxic |  | 
8 | O=C(O[C@H]1C[N+]2(CCCOc3ccccc3)CCC1CC2)[C@@](O)(c1ccccc1)c1cccs1.[Br-] | 0.16 | 0.17 | 0.25 | Non-toxic |  | 
9 | O=C(O[C@H]1C[N+]2(CCCOc3ccccc3)CCC1CC2)[C@](O)(c1cccs1)C1CCCC1.[Br-] | 0.15 | 0.14 | 0.18 | Non-toxic | >6 | half-life [8]: > 1 h; half-life [9]: > 1 h; Time (Cavia porcellus [5]): >6 h; Ki [10]: 0.06 nM; Ki [11]: 0.09 nM; Activity (Mus musculus [1]): Toxic; Ki [12]: 0.07 nM
10 | O=C(O[C@H]1C[N+]2(CCc3ccccc3)CCC1CC2)C1c2ccccc2Oc2ccccc21.[Br-] | 0.44 | 1.82 | 0.31 | Non-toxic | >6 | 
11 | CC1(C(=O)O[C@H]2C[N+]3(CCCOc4ccccc4)CCC2CC3)c2ccccc2-c2ccccc21.[Br-] | 1.26 | 2.1 | 0.96 | Non-toxic |  | 
12 | CC(C(=O)O[C@H]1C[N+]2(CCCOc3ccccc3)CCC1CC2)(c1cccs1)c1cccs1.[Br-] | 0.6 | 0.73 | 0.59 | Non-toxic |  | 
13 | O=C(O[C@H]1C[N+]2(CCCOc3ccccc3)CCC1CC2)C1(O)c2ccccc2-c2ccccc21.[Br-] | 0.63 | 1.08 | 0.71 | Non-toxic |  | Time (Cavia porcellus [5]): >6 h
14 | O=C(O[C@H]1C[N+]2(CCc3ccccc3)CCC1CC2)C1(O)c2ccccc2-c2ccccc21.[Br-] | 1.12 | 2.24 | 1.04 | Non-toxic | >6 | 
15 | O=C(O[C@H]1C[N+]2(CCCOc3ccccc3)CCC1CC2)C1(O)c2ccccc2Oc2ccccc21.[Br-] | 0.23 | 0.36 | 1.04 | Non-toxic | >6 | 
16 | O=C(O[C@H]1C[N+]2(CCc3ccccc3)CCC1CC2)C1(O)c2ccccc2Oc2ccccc21.[Br-] | 0.29 | 0.54 | 0.28 | Non-toxic | >6 | 
17 | O=C(O[C@H]1C[N+]2(CCCOc3ccccc3)CCC1CC2)[C@](O)(c1ccccc1)c1cccs1.[Br-] | 0.38 | 0.31 | 0.48 | Non-toxic |  | 
18 | O=C(O[C@H]1C[N+]2(CCCOc3ccccc3)CCC1CC2)C(O)(c1cccs1)c1cccs1.[Br-] [ACLIDINIUM BROMIDE] | 0.14 |  |  | Non-toxic | >6 | half-life [8]: 1 h; half-life [9]: 0.0367 h; Ki [11]: 0.08 nM; IC50 (Cavia porcellus [13]): 140 µg/mL; Activity (Mus musculus [1]): Non-toxic; Time (Cavia porcellus [14]): >6 h
19 | C[N+]1(C)[C@@H]2C[C@@H](OC(=O)C(O)(c3cccs3)c3cccs3)C[C@H]1[C@@H]1O[C@@H]12.O.[Br-] [TIOTROPIUM BROMIDE] |  |  |  |  | >6 | IC50 (Cavia porcellus [13]): 45 µg/mL; Activity (Mus musculus [1]): Toxic

Reference: ChEMBL document CHEMBL1152978 (J Med Chem, 2009)
